Measurements reported in patent US20260297081A1, “COMPOUNDS AND METHODS OF TREATING CANCERS” (Cullgen Inc., priority 2023, published 2026).

Biological target: CDK4 (Homo sapiens, UniProt P11802+Q16531)
Experiment: HiBiT detection of HiBiT-tagged CDK4 protein level in MCF7 cells, 16 hours (Table 8)
Format: cell-based
Parameters: expressed in transfected cells; host or cells: MCF7
Details: MCF7 cells stably expressing HiBiT tagged target proteins; for activity at 0.01 µM: 10 nM, read-out: % CDK4 Relative Level (10 nM); for activity at 0.1 µM: 100 nM, read-out: % CDK4 Relative Level (100 nM)
Experimental: HiBiT detection system quantitatively measures total amounts of HiBiT-tagged proteins using a luminescent based method. MCF7 cells stably expressing HiBiT tagged target proteins were treated with heterobifunctional compounds at indicated concentrations for 16 hours, then lysed with Nano-Glo HiBiT Lytic detection reagents.

Sequence of CDK4 (P11802 whole entry): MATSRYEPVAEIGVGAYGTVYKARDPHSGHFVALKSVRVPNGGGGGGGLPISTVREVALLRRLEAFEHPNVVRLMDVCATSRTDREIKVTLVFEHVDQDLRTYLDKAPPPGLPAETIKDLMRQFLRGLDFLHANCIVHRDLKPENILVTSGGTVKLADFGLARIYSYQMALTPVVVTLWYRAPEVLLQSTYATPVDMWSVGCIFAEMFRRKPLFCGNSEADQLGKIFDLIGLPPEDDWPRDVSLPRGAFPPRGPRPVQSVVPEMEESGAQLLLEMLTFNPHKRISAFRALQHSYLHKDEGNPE
Sequence of CDK4 (P24385 whole entry partner): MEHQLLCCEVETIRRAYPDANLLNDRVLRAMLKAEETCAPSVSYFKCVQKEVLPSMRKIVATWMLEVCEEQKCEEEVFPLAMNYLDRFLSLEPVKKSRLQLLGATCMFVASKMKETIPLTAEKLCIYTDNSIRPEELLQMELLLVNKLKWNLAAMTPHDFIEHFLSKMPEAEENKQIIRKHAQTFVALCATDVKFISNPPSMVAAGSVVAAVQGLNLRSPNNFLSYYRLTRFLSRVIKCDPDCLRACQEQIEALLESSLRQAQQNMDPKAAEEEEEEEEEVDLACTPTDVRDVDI
Sequence of CDK4 (Q16531 2-1140 limits assumed): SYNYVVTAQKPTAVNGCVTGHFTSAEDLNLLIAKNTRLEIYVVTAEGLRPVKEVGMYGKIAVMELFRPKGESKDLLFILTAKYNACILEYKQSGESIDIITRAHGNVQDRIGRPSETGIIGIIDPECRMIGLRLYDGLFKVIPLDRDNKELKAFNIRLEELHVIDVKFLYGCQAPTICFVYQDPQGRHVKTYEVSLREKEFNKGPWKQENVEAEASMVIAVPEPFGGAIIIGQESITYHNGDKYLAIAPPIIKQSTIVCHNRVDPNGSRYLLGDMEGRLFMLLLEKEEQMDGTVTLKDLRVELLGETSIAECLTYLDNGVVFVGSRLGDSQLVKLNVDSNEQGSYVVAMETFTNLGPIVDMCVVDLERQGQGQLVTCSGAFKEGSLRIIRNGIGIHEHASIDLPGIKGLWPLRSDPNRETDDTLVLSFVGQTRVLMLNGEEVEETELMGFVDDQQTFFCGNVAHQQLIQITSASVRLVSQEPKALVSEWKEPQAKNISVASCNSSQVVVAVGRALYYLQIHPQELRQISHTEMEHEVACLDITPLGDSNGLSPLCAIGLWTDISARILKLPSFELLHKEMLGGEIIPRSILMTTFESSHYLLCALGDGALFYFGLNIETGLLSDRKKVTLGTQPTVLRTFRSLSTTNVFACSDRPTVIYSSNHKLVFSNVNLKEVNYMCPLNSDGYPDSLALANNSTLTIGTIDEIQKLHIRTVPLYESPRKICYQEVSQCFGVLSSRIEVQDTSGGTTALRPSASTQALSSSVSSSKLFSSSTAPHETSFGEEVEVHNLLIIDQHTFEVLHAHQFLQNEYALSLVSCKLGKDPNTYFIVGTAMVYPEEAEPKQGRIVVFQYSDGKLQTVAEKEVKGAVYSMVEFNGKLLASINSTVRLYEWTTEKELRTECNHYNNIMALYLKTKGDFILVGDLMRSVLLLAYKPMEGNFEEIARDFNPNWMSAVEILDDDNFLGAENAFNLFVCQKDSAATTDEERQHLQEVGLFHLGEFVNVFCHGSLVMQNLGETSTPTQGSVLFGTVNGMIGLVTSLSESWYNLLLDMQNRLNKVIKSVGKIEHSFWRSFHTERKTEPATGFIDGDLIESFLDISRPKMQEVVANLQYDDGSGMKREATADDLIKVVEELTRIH

activity at 0.01 µM | activity at 0.1 µM | Compound
> 85% | > 85% | CNc1ccc(C(=O)Nc2ccc(N(C)C)nn2)c(NCCCNC(=O)CN2CCN(c3ccc(Nc4ncc(F)c(-c5cc(F)c6nc(C)n(C(C)C)c6c5)n4)nc3)CC2)n1 [CPD-659, N-(6-(dimethylamino)pyridazin-3-yl)-2-((3-(2-(4-(6-((5-fluoro-4-(4-fluoro-1-isopropyl-2-methyl-1H-benzo[d]imidazol-6-yl)pyrimidin-2-yl)amino)pyridin-3-yl)piperazin-1-yl)acetamido)propyl)amino)-6-(methylamino)nicotinamide]
> 85% | > 85% | CNc1ccc(C(=O)Nc2ccc(N(C)C)nn2)c(NCCCCNC(=O)CN2CCN(c3ccc(Nc4ncc(F)c(-c5cc(F)c6nc(C)n(C(C)C)c6c5)n4)nc3)CC2)n1 [CPD-660, N-(6-(dimethylamino)pyridazin-3-yl)-2-((4-(2-(4-(6-((5-fluoro-4-(4-fluoro-1-isopropyl-2-methyl-1H-benzo[d]imidazol-6-yl)pyrimidin-2-yl)amino)pyridin-3-yl)piperazin-1-yl)acetamido)butyl)amino)-6-(methylamino)nicotinamide]
> 85% | > 85% | CNc1ccc(C(=O)Nc2ccc(N(C)C)nn2)c(NCCCCCNC(=O)CN2CCN(c3ccc(Nc4ncc(F)c(-c5cc(F)c6nc(C)n(C(C)C)c6c5)n4)nc3)CC2)n1 [CPD-661, N-(6-(dimethylamino)pyridazin-3-yl)-2-((5-(2-(4-(6-((5-fluoro-4-(4-fluoro-1-isopropyl-2-methyl-1H-benzo[d]imidazol-6-yl)pyrimidin-2-yl)amino)pyridin-3-yl)piperazin-1-yl)acetamido)pentyl)amino)-6-(methylamino)nicotinamide]

Continued, compound first:

Compound | activity at 0.01 µM | activity at 0.1 µM
CNc1ccc(C(=O)Nc2ccc(N(C)C)nn2)c(NCCOCCC(=O)N2CCN(c3ccc(Nc4ncc(F)c(-c5cc(F)c6nc(C)n(C(C)C)c6c5)n4)nc3)CC2)n1 [CPD-654, N-(6-(dimethylamino)pyridazin-3-yl)-2-((2-(3-(4-(6-((5-fluoro-4-(4-fluoro-1-isopropyl-2-methyl-1H-benzo[d]imidazol-6-yl)pyrimidin-2-yl)amino)pyridin-3-yl)piperazin-1-yl)-3-oxopropoxy)ethyl)amino)-6-(methylamino)nicotinamide] | > 85% | > 85%
CNc1ccc(C(=O)Nc2ccc(N(C)C)nn2)c(NCCOCCOCCC(=O)N2CCN(c3ccc(Nc4ncc(F)c(-c5cc(F)c6nc(C)n(C(C)C)c6c5)n4)nc3)CC2)n1 [CPD-655, N-(6-(dimethylamino)pyridazin-3-yl)-2-((2-(2-(3-(4-(6-((5-fluoro-4-(4-fluoro-1-isopropyl-2-methyl-1H-benzo[d]imidazol-6-yl)pyrimidin-2-yl)amino)pyridin-3-yl)piperazin-1-yl)-3-oxopropoxy)ethoxy)ethyl)amino)-6-(methylamino)nicotinamide] | > 85% | > 85%
CNc1ccc(C(=O)Nc2ccc(N(C)C)nn2)c(NCC(=O)N2CCN(Cc3ccc(Nc4ncc(F)c(-c5cc(F)c6nc(C)n(C(C)C)c6c5)n4)nc3)CC2)n1 [CPD-656, N-(6-(dimethylamino)pyridazin-3-yl)-2-((2-(4-((6-((5-fluoro-4-(4-fluoro-1-isopropyl-2-methyl-1H-benzo[d]imidazol-6-yl)pyrimidin-2-yl)amino)pyridin-3-yl)methyl)piperazin-1-yl)-2-oxoethyl)amino)-6-(methylamino)nicotinamide] | > 85% | > 85%
CNc1ccc(C(=O)Nc2ccc(N(C)C)nn2)c(NCCNC(=O)CN2CCN(c3ccc(Nc4ncc(F)c(-c5cc(F)c6nc(C)n(C(C)C)c6c5)n4)nc3)CC2)n1 [CPD-658, N-(6-(dimethylamino)pyridazin-3-yl)-2-((2-(2-(4-(6-((5-fluoro-4-(4-fluoro-1-isopropyl-2-methyl-1H-benzo[d]imidazol-6-yl)pyrimidin-2-yl)amino)pyridin-3-yl)piperazin-1-yl)acetamido)ethyl)amino)-6-(methylamino)nicotinamide] | > 85% | > 85%
